Data reported in the kinase profiling compilation of Christmann-Franck et al. (2016).

Experiments:
Experiment in all cases: radiometric filter-binding kinase assay, Kinase HotSpot
Conditions in all cases: compound 0.5 µM; ATP 10 µM
[1] = biological target: ACVR1 (human) (UniProt Q04771)
[2] = biological target: ADRBK1 (human) (UniProt P25098)
[3] = biological target: AURKA (human) (UniProt O14965)
[4] = biological target: AURKC (human) (UniProt Q9UQB9)
[5] = biological target: BRSK1 (human) (UniProt Q8TDC3)
[6] = biological target: CAMK2G (human) (UniProt Q13555)
[7] = biological target: CDC42BPB (human) (UniProt Q9Y5S2)
[8] = biological target: CDK2 CCNA2 (human) (UniProt P24941+P20248)
[9] = biological target: CDK5 CDK5R1 p25 (human) (UniProt Q00535+Q15078)
[10] = biological target: CLK4 (human) (UniProt Q9HAZ1)
[11] = biological target: CSNK1A1 (human) (UniProt P48729)
[12] = biological target: CSNK1E (human) (UniProt P49674)
[13] = biological target: CSNK1G3 (human) (UniProt Q9Y6M4)
[14] = biological target: DAPK3 (human) (UniProt O43293)
[15] = biological target: DMPK (human) (UniProt Q09013)
[16] = biological target: DYRK4 (human) (UniProt Q9NR20)
[17] = biological target: EPHA1 (human) (UniProt P21709)
[18] = biological target: ERBB4 (human) (UniProt Q15303)
[19] = biological target: FGFR1 (human) (UniProt P11362)
[20] = biological target: FGFR4 (human) (UniProt P22455)
[21] = biological target: GSK3A (human) (UniProt P49840)
[22] = biological target: MAP3K3 (human) (UniProt Q99759)
[23] = biological target: MAP3K8 (human) (UniProt P41279)
[24] = biological target: MKNK2 (human) (UniProt Q9HBH9)
[25] = biological target: MYLK (human) (UniProt Q15746)
[26] = biological target: MYLK2 (human) (UniProt Q9H1R3)
[27] = biological target: NUAK1 (human) (UniProt O60285)
[28] = biological target: PAK3 (human) (UniProt O75914)
[29] = biological target: PIM3 (human) (UniProt Q86V86)
[30] = biological target: PRKACA (human) (UniProt P17612)
[31] = biological target: PTK2 (human) (UniProt Q05397)
[32] = biological target: RAF1 (human) (UniProt P04049)
[33] = biological target: RIPK2 (human) (UniProt O43353)
[34] = biological target: ROS1 (human) (UniProt P08922)
[35] = biological target: RPS6KA5 KD2 (human) (UniProt O75582)
[36] = biological target: RPS6KA6 KD1 KD2 (human) (UniProt Q9UK32)
[37] = biological target: RPS6KB2 (human) (UniProt Q9UBS0)
[38] = biological target: SRPK1 (human) (UniProt Q96SB4)
[39] = biological target: TEC (human) (UniProt P42680)
[40] = biological target: TGFBR1 (human) (UniProt P36897)
[41] = biological target: ULK1 (human) (UniProt O75385)
[42] = biological target: YES1 (human) (UniProt P07947)

Chain of EPHA1 (human) (P21709 whole entry, looked up): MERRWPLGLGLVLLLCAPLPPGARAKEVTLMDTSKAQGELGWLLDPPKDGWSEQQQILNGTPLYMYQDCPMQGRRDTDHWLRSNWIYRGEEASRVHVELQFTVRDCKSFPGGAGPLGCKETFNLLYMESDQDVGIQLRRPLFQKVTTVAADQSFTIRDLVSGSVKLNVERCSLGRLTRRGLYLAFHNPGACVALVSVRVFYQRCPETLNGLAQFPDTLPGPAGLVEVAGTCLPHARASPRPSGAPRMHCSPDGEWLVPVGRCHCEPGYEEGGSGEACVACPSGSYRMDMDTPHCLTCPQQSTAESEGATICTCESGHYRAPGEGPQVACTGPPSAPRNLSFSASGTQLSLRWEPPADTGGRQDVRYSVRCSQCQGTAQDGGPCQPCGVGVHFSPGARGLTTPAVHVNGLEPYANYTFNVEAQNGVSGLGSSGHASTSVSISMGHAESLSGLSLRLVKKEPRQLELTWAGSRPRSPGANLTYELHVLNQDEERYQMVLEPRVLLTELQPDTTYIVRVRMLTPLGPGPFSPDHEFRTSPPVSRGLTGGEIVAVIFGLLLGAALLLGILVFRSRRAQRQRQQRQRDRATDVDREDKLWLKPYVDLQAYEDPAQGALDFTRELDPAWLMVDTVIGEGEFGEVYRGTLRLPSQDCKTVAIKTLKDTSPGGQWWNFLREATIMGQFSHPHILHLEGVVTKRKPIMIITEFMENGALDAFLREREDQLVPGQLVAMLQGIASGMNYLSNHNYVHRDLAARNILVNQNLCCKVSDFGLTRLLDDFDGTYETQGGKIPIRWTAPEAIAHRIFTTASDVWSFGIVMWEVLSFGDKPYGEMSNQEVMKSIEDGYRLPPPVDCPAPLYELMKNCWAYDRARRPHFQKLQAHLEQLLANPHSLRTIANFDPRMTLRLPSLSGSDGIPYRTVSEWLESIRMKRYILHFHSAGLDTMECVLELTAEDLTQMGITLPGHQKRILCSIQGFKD
Chain of PTK2 (human) (Q05397 whole entry, looked up): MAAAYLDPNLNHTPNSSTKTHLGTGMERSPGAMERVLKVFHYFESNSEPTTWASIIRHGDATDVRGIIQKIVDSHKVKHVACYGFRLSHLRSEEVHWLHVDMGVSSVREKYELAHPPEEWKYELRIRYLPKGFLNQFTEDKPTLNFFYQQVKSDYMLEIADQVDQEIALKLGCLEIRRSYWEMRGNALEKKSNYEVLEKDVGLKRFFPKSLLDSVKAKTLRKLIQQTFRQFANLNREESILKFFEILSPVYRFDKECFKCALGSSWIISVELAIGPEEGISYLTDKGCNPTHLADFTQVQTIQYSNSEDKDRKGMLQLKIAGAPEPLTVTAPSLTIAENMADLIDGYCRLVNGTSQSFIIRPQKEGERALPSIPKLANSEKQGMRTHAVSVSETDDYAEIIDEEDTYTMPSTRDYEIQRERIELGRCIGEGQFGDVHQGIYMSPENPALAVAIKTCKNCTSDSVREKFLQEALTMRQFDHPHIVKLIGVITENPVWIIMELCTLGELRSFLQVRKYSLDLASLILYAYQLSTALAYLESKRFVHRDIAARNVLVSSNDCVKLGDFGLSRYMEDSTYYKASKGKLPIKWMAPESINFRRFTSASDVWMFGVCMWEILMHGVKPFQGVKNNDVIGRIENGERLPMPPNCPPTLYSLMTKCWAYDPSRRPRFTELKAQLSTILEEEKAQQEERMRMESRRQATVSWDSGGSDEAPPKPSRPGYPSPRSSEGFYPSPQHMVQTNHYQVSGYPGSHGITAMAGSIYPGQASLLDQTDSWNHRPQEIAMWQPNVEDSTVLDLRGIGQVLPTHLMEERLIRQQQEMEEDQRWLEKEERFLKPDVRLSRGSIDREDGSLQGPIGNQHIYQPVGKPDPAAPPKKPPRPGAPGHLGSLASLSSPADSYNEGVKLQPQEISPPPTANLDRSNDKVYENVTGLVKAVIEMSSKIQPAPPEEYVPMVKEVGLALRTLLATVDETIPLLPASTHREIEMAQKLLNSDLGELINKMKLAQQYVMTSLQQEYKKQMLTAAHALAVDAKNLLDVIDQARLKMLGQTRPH
Chain of SRPK1 (human) (Q96SB4 whole entry, looked up): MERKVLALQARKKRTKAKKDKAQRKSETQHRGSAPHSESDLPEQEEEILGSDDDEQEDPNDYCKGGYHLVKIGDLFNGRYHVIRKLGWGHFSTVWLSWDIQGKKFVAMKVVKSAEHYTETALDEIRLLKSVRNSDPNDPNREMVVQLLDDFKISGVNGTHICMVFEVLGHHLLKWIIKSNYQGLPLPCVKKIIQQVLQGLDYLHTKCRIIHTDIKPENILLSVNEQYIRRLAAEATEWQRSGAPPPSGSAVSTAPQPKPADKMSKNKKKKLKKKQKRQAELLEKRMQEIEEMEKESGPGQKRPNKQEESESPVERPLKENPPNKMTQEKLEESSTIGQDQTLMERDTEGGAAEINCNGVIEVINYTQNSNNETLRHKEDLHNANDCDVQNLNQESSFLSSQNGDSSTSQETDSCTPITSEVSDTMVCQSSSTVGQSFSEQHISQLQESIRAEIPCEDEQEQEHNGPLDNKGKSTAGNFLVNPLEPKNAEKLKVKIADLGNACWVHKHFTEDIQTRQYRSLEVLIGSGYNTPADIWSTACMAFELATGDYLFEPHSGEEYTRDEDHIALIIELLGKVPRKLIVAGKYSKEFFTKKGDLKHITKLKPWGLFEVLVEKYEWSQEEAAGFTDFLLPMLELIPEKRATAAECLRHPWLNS
Chain of CDK5 CDK5R1 p25 (human) (Q00535 whole entry, looked up): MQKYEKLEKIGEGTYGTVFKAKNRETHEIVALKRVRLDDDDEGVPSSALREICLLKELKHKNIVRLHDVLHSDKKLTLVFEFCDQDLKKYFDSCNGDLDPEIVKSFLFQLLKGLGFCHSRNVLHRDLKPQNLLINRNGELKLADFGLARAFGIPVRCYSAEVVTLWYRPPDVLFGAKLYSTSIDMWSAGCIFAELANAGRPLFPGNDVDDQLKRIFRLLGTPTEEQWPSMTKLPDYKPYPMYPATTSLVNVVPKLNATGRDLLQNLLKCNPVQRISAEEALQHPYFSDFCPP
Chain of CDK5 CDK5R1 p25 (human) (Q15078 whole entry, looked up): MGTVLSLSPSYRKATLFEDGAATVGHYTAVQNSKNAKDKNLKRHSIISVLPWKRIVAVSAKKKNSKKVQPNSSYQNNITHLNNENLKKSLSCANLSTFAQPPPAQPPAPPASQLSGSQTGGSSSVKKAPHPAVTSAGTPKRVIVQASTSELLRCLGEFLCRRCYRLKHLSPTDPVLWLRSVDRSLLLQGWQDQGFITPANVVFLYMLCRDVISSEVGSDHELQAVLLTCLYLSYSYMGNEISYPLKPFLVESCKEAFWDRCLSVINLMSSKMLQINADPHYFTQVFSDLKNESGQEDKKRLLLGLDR
Chain of ACVR1 (human) (Q04771 whole entry, looked up): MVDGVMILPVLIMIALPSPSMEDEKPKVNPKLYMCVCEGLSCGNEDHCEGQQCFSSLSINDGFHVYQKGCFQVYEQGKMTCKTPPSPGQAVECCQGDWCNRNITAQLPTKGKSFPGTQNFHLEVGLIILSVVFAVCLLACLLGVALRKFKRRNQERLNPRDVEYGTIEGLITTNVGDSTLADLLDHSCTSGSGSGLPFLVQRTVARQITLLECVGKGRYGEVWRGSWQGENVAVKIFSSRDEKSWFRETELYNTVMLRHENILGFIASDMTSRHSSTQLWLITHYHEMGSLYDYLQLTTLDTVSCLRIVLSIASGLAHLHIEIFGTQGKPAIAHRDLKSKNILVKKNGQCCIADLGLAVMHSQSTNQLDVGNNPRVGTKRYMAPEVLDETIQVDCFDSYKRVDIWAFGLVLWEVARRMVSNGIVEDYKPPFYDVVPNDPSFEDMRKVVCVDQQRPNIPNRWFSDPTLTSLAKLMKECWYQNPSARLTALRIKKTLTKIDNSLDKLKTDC
Chain of TGFBR1 (human) (P36897 whole entry, looked up): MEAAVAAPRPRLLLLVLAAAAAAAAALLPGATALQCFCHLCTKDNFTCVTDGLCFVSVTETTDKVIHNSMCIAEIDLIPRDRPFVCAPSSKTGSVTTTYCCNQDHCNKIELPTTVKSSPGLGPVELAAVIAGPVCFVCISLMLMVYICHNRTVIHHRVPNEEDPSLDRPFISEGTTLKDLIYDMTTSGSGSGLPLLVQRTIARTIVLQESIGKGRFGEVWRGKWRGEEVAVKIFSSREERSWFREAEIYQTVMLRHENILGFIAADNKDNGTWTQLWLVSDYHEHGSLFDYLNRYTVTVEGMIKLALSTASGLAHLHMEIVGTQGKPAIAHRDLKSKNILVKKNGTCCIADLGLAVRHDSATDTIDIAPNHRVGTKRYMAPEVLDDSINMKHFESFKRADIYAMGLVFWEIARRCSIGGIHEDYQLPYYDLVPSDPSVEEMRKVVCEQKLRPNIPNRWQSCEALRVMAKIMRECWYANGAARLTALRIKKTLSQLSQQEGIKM
Chain of AURKC (human) (Q9UQB9 whole entry, looked up): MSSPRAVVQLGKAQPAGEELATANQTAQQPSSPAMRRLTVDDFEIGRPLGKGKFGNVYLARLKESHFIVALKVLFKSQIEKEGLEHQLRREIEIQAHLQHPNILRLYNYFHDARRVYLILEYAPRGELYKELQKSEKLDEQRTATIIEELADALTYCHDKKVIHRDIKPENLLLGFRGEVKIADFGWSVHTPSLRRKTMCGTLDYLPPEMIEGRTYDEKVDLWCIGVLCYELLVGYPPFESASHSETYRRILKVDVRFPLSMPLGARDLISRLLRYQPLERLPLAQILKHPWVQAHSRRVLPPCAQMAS

CCCCc1c(-c2ccc(OC)cc2)[nH]c2nccnc12
residual activity [1]: 86.9% | residual activity [2]: 78.5% | residual activity [3]: 25.5% | residual activity [4]: 55.8% | residual activity [5]: 89.1% | residual activity [6]: 107% | residual activity [7]: 92.5% | residual activity [8]: 36.3% | residual activity [9]: 41.3% | residual activity [10]: 73.2% | residual activity [11]: 92.9% | residual activity [12]: 109% | residual activity [13]: 89.2% | residual activity [14]: 102% | residual activity [15]: 84.3% | residual activity [16]: 97.7% | residual activity [17]: 67.9% | residual activity [18]: 109% | residual activity [19]: 83.3% | residual activity [20]: 92.5% | residual activity [21]: 55.8% | residual activity [22]: 99.8% | residual activity [23]: 98.2% | residual activity [24]: 99.3% | residual activity [25]: 96.8% | residual activity [26]: 102% | residual activity [27]: 25% | residual activity [28]: 106% | residual activity [29]: 90.9% | residual activity [30]: 96.6% | residual activity [31]: 81.7% | residual activity [32]: 99.9% | residual activity [33]: 71% | residual activity [34]: 37.5% | residual activity [35]: 104% | residual activity [36]: 78.2% | residual activity [37]: 99.7% | residual activity [38]: 100% | residual activity [39]: 134% | residual activity [40]: 95% | residual activity [41]: 87.9% | residual activity [42]: 45.7%

CS(=O)(=O)CCNCc1ccc(-c2ccc3ncnc(Nc4ccc(OCc5cccc(F)c5)c(Cl)c4)c3c2)o1
residual activity [1]: 106% | residual activity [2]: 94.8% | residual activity [3]: 81.5% | residual activity [4]: 90.9% | residual activity [5]: 98.6% | residual activity [6]: 111% | residual activity [7]: 95.7% | residual activity [8]: 94.5% | residual activity [9]: 90.4% | residual activity [10]: 115% | residual activity [11]: 104% | residual activity [12]: 99.4% | residual activity [13]: 104% | residual activity [14]: 97.4% | residual activity [15]: 94.7% | residual activity [16]: 103% | residual activity [17]: 99.3% | residual activity [18]: 11.2% | residual activity [19]: 102% | residual activity [20]: 96.6% | residual activity [21]: 105% | residual activity [22]: 110% | residual activity [23]: 99.7% | residual activity [24]: 97.3% | residual activity [25]: 90.7% | residual activity [26]: 108% | residual activity [27]: 108% | residual activity [28]: 105% | residual activity [29]: 93.7% | residual activity [30]: 96% | residual activity [31]: 104% | residual activity [32]: 85.9% | residual activity [33]: 110% | residual activity [34]: 107% | residual activity [35]: 98.3% | residual activity [36]: 108% | residual activity [37]: 100% | residual activity [38]: 100% | residual activity [39]: 101% | residual activity [40]: 101% | residual activity [41]: 95.4% | residual activity [42]: 84.7%

c1ccc2c(-c3ccncc3)c[nH]c2c1
residual activity [1]: 94.7% | residual activity [2]: 97.7% | residual activity [3]: 78% | residual activity [4]: 93.1% | residual activity [5]: 90.3% | residual activity [6]: 92.6% | residual activity [7]: 104% | residual activity [8]: 99.7% | residual activity [9]: 92% | residual activity [10]: 101% | residual activity [11]: 100% | residual activity [12]: 100% | residual activity [13]: 108% | residual activity [14]: 101% | residual activity [15]: 109% | residual activity [16]: 98.7% | residual activity [17]: 105% | residual activity [18]: 83.7% | residual activity [19]: 92.7% | residual activity [20]: 84.6% | residual activity [21]: 103% | residual activity [22]: 103% | residual activity [23]: 99% | residual activity [24]: 39.2% | residual activity [25]: 96.8% | residual activity [26]: 96.2% | residual activity [27]: 94.8% | residual activity [28]: 102% | residual activity [29]: 103% | residual activity [30]: 91.6% | residual activity [31]: 97.7% | residual activity [32]: 93.2% | residual activity [33]: 89.9% | residual activity [34]: 81.6% | residual activity [35]: 96.7% | residual activity [36]: 112% | residual activity [37]: 97.8% | residual activity [38]: 108% | residual activity [39]: 123% | residual activity [40]: 103% | residual activity [41]: 83.8% | residual activity [42]: 97.1%

Ic1cccc(CSc2nnc(-c3ccncc3)o2)c1
residual activity [1]: 97.4% | residual activity [2]: 99.9% | residual activity [3]: 95.8% | residual activity [4]: 91.2% | residual activity [5]: 101% | residual activity [6]: 96.8% | residual activity [7]: 96.6% | residual activity [8]: 100% | residual activity [9]: 90.5% | residual activity [10]: 90% | residual activity [11]: 97% | residual activity [12]: 94.3% | residual activity [13]: 75.9% | residual activity [14]: 107% | residual activity [15]: 105% | residual activity [16]: 98.5% | residual activity [17]: 97% | residual activity [18]: 96.4% | residual activity [19]: 92.4% | residual activity [20]: 97.2% | residual activity [21]: 42.7% | residual activity [22]: 89.6% | residual activity [23]: 96.1% | residual activity [24]: 91.5% | residual activity [25]: 99.1% | residual activity [26]: 101% | residual activity [27]: 95.1% | residual activity [28]: 92.9% | residual activity [29]: 106% | residual activity [30]: 94.6% | residual activity [31]: 106% | residual activity [32]: 92.8% | residual activity [33]: 86.3% | residual activity [34]: 99.3% | residual activity [35]: 97.2% | residual activity [36]: 103% | residual activity [37]: 103% | residual activity [38]: 103% | residual activity [39]: 106% | residual activity [40]: 94.4% | residual activity [41]: 97.1% | residual activity [42]: 95.7%
